Broadly, the IC50 is the concentration at which inhibition is half-maximal. A lower IC50 goes with higher potency.

Data set [1] deals with bladder. Put plainly: Test Example 4: micturition contraction interval in rats under partial restraint, oral. Type of data set: in vivo, rat (male SD strain). To be noted: Rattus norvegicus, pre-administration = 100; for response vs control in vivo at 3 mg/kg: 3 mg/kg oral; for response vs control in vivo at 1 mg/kg: 1.0 mg/kg oral, second part of Table 4. The text has this:
As a control compound, cromakalim was used.

For data set [2], the system named is bladder. Put plainly: Test Example 3: vesical contraction interval in anesthetized rats, intravenous. Type of data set: in vivo, rat (female SD strain). As to conditions: 1 mg/kg i.v., average over 20 minutes, relative to pre-administration value. An excerpt: Female SD strain rats (120-180 g) were used as test animals. Each animal was anesthetized by subcutaneous administration of 1 g/kg urethane. A catheter was inserted into the trachea to secure respiration. A polyethylene cannula (PE50) was inserted into the bladder from the entrance of the urethra and the urethra was ligated at the base. A catheter for blood pressure measurement was inserted into the right carotid artery, and a cannula for drug administration was inserted into the right jugular vein. The arterial catheter and the vesical catheter were connected to pressure transducers to measure the blood pressure and the intravesical pressure. After the bladder was stabilized over about 15 minutes, physiological saline was injected into the bladder at a volume of 0.2-0.7 ml to induce the rhythmical contraction almost once a minute. […]
By this examination method, the effect of the test compounds on both blood pressure and vesical contraction can be evaluated. The blood pressure was measured 5, 15, and 30 minutes after the test compound was injected into the vein. […] The change of average contraction interval (time between contractions) over 20 minutes was expressed as the relative value based on the pre-administration value which was regarded as 100.

Data set [3] deals with detrusor muscle. Put plainly: Test Example 2: relaxation of guinea pig bladder strips, rhythmical contraction induced by 15 mM KCl. Type of data set: cell-based, guinea pig (male albino Hartley). As to conditions: Cavia porcellus, concentration decreasing detrusor contraction by 50%. An excerpt:
(§1) The activity of Compound (I) as a smooth muscle relaxant which is useful as a therapeutic agent for urinary incontinence can be observed, for example, using the following tests. In the following Test Examples 1 and 2, "IC50 " means the concentration of a test compound which induces the decrease in the contraction of detrusor muscle by 50%.
(§2) Male albino Hartley guinea pigs (350-550 g) were used as test animals. Each animal was exsanguinated to death under pentobarbital sodium anesthesia. The lower abdominal cavity was opened and its bladder was positioned. The connective tissue and the fat tissue around the bladder were removed, and the bladder was cleaned. After two pelvic nerves on the surface of the abdominal side of the bladder were dissected, the bladder was taken out on the entrance of ureter. The bladder was washed with a Krebs-Henseleit buffer [composition (mM): NaCl 118, KCl 4.7, MgSO4 1.2, KH2 PO4 1.2, CaCl2 2.5, NaHCO3 25, and D-glucose 11.1], and then put on a gauze patch soaked in the buffer in a Petri dish. The dome and the trigone of the bladder were dissected and discarded. The back of the bladder was cut vertically in the middle with scissors, and the bladder was put flat on the gauze patch. The dome tip and the side of the trigone of the bladder were dissected and discarded, and the mucosa of the bladder was removed. The back of the bladder was cut vertically to get 6 strips which are ca. 2.0 mm wide and ca. 10 mm long.
(§3) One end of each strip was fixed on a plastic supporter rod, and the other end was fixed on a clip connected to a suture thread. The supporter was fixed in 20 ml of an organ bath and the suture thread connected to the clip was fixed on a force-displacement transducer (NIHON KODEN TB-611T). The tissue was suspended in a Krebs-Henseleit buffer, and the bath solution was warmed to 37° C. and bubbled with a gas mixture of 5% CO2 and 95% O2. The pH of the solution was adjusted to about 7.4. The transducer was connected to a polygraph (NIHON KODEN AP-621G), and the change of tension was recorded on a recorder (YOKOGAWA type 3066). The polygraph was graduated by 0.5 g/cm.
The effect of a smooth muscle relaxant varies with the concentration of KCl based on the difference of an action mechanism. In the following Test Example, KCl was used at a concentration different from that in Test Example 1.
A sample of the excised bladder was prepared in the same manner as in Test Example 1, and the tension of the preparation was measured. After the tension of the tissue was adjusted to be a steady state at 1 g, 15 mM KCl was applied. After the rhythmical contraction was confirmed to appear by KCl, the tissue was washed. Then, 15 mM KCl was applied again. After the rhythmical contraction took place constantly and the tissue reached the steady state, a test compound was applied by the cumulative method (half-logarithmic incremence). The contact time at each concentration was 30 minutes. The activity of the compound was expressed as the maximum relaxation rate (%) of the tension induced by the agonist.

Data set [4] relates to detrusor muscle. Put plainly: Test Example 1: relaxation of guinea pig bladder strips contracted with 50 mM KCl. Type of data set: cell-based, guinea pig (male albino Hartley). As to conditions: Cavia porcellus; contraction induced by 50 mM KCl; concentration decreasing detrusor contraction by 50%.
Excerpt: as §1, §2, §3
After the tissue was incubated in the buffer for 15 minutes without preloading, tension was added thereto for about one hour. The preloading tension added was 1.5 g and it was relaxed to about 1 g. The tissue was washed at intervals of 15 minutes and the tension was adjusted to 1.5 g just before washing. The tension of the tissue was adjusted to be a steady state at 1 g. After this equilibrium time, 50 mM KCl (the whole content in the bath) was added, and the tissue was washed 10 minutes later. KCl was added to the tissue at intervals of 30 minutes, followed by washing 10 minutes later, and KCl was applied repeatedly until the developed tension induced by KCl becomes constant. When the tissue was confirmed to contract constantly by the application of KCl and relax to the steady state after washing, 50 mM KCl was applied again. After the tissue reached the steady state and the base line was obtained, a test compound was applied by the cumulative method (half-logarithmic incremence). The contact time at each concentration was 30 minutes. The activity of the compound was expressed as the maximum relaxation rate (%) of the tension induced by the agonist.

Data set [5] can be described thus: Test Example 3: arterial blood pressure in anesthetized rats, intravenous. The class given is in vivo, rat (female SD strain). As to conditions: 1 mg/kg i.v. An excerpt:
Female SD strain rats (120-180 g) were used as test animals. Each animal was anesthetized by subcutaneous administration of 1 g/kg urethane. A catheter was inserted into the trachea to secure respiration. A polyethylene cannula (PE50) was inserted into the bladder from the entrance of the urethra and the urethra was ligated at the base. A catheter for blood pressure measurement was inserted into the right carotid artery, and a cannula for drug administration was inserted into the right jugular vein. The arterial catheter and the vesical catheter were connected to pressure transducers to measure the blood pressure and the intravesical pressure. After the bladder was stabilized over about 15 minutes, physiological saline was injected into the bladder at a volume of 0.2-0.7 ml to induce the rhythmical contraction almost once a minute. After the contraction of the bladder started, the contraction pattern was stabilized for 30-45 minutes, followed by intravenous administration of a test compound.
By this examination method, the effect of the test compounds on both blood pressure and vesical contraction can be evaluated. The blood pressure was measured 5, 15, and 30 minutes after the test compound was injected into the vein. Micturition contraction was induced by injecting physiological saline into the bladder. The change of average contraction interval (time between contractions) over 20 minutes was expressed as the relative value based on the pre-administration value which was regarded as 100.

Regarding `CC(O)(C(=O)Nc1cccc2c1C(=O)c1ccccc1CO2)C(F)(F)F` (stereo not shown) [Compound 1, 1-(3,3,3-Trifluoro-2-hydroxy-2-methylpropanoylamino)-6,11-dihydrodibenz[b,e]oxepin-11-one], the response vs control in vivo at 3 mg/kg turned out to be 136% in the data set on bladder [1] (1 hr); 148% in the data set with bladder [1] (2 hr); 134% in the data set with bladder [1] (3 hr); 122% with bladder [1] (4 hr); 117% in the data set with bladder [1] (5 hr). The “Change of contraction interval” value in the data set on bladder [2] is on record as “+150%”. The values for the IC50 with detrusor muscle [3] and in the data set on detrusor muscle [4] were 2400 nM and 1700 nM, respectively. Besides, the “Change of average arterial blood pressure” value in data set [5] (5 min), in data set [5] (15 min) and in data set [5] (30 min) was “+5%” throughout.
As for `CC(O)(C(=O)Nc1ccc2c(c1)C(=O)c1ccccc1CC2)C(F)(F)F` (stereo not shown) [Compound 53, 3-(3,3,3-Trifluoro-2-hydroxy-2-methylpropanoylamino)-10,11-dihydro-5H-dibenzo[a,d]cyclohepten-5-one], the response vs control in vivo at 1 mg/kg in the data set with bladder [1] (1 hr after administration) is 108 ± 9.7%; in the data set on bladder [1] (2 hr after administration) it was 134 ± 12%; with bladder [1] (3 hr after administration), 148 ± 14%; in the data set on bladder [1] (4 hr after administration) it was 155 ± 11.9%; in the data set with bladder [1] (5 hr after administration), 168 ± 11.8%. Moreover, the concentration for half-maximal inhibition (IC50) in the data set on detrusor muscle [3] is 2900 nM; in the data set with detrusor muscle [4] it was > 10000 nM.
Turning to `CC(O)(C(=O)Nc1ccc2c(c1)C(=O)c1sccc1CO2)C(F)(F)F` (stereo not shown) [Compound 16, 8-(3,3,3-Trifluoro-2-hydroxy-2-methylpropanoylamino)-4,10-dihydrothieno[3,2-c][1]benzoxepin-10-one], the response vs control in vivo at 1 mg/kg came to 118 ± 7.9% with bladder [1] (1 hr after administration); 132 ± 14.2% in the data set with bladder [1] (2 hr after administration); 119 ± 9.8% in the data set with bladder [1] (3 hr after administration); 127 ± 7.1% in the data set on bladder [1] (4 hr after administration); 137 ± 12.6% in the data set on bladder [1] (5 hr after administration). Besides, the 50% inhibitory concentration (IC50) with detrusor muscle [3] was 1400 nM; in the data set with detrusor muscle [4] it was > 10000 nM.
Consider `CC(O)(C(=O)Nc1ccc2c(c1)OCc1ccsc1C2=O)C(F)(F)F` (stereo not shown) [Compound 8, 7-(3,3,3-Trifluoro-2-hydroxy-2-methylpropanoylamino)-4,10-dihydrothieno[3,2-c][1]benzoxepin-10-one], for which the response vs control in vivo at 1 mg/kg in the data set with bladder [1] (1 hr after administration) stood at 130 ± 9.3%; with bladder [1] (2 hr after administration) it was 142 ± 12.6%; in the data set with bladder [1] (3 hr after administration), 144 ± 8.8%; in the data set with bladder [1] (4 hr after administration), 162 ± 14.6%; in the data set with bladder [1] (5 hr after administration) it was 189 ± 19.6%. Moreover, the IC50 in the data set on detrusor muscle [3] came to 500 nM; with detrusor muscle [4], 5200 nM.
Regarding `C[C@](O)(C(=O)Nc1cccc2c1C(=O)c1ccoc1CO2)C(F)(F)F` [Compound 35, (S)-5-(3,3,3-Trifluoro-2-hydroxy-2-methylpropanoylamino)-4,10-dihydrofuro[2,3-c][1]benzoxepin-4-one], the response vs control in vivo at 1 mg/kg with bladder [1] (1 hr after administration) stood at 123 ± 8.8%; in the data set on bladder [1] (2 hr after administration), 124 ± 5.7%; in the data set on bladder [1] (3 hr after administration) it was 131 ± 9.8%; in the data set on bladder [1] (4 hr after administration), 138 ± 11%; in the data set on bladder [1] (5 hr after administration), 144 ± 8.9%. The IC50 was 1000 nM in the data set with detrusor muscle [3] and 31000 nM in the data set with detrusor muscle [4].
For the compound `C[C@](O)(C(=O)Nc1ccc2c(c1)OCc1occc1C2=O)C(F)(F)F` [Compound 37, (S)-7-(3,3,3-Trifluoro-2-hydroxy-2-methylpropanoylamino)-4,10-dihydrofuro[2,3-c][1]benzoxepin-4-one], the response vs control in vivo at 1 mg/kg stood at 114 ± 10.7% in the data set with bladder [1] (1 hr after administration); 128 ± 6.5% in the data set on bladder [1] (2 hr after administration); 126 ± 6.5% with bladder [1] (3 hr after administration); 140 ± 10.2% in the data set on bladder [1] (4 hr after administration); 144 ± 11.1% in the data set on bladder [1] (5 hr after administration). For the same compound, the IC50 in the data set with detrusor muscle [3] came out at 200 nM; with detrusor muscle [4], 4300 nM.
Turning to `CC(O)(C(=O)Nc1ccc2c(c1)C(=O)c1ccccc1-2)C(F)(F)F` (stereo not shown) [Compound 5, 2-(3,3,3-Trifluoro-2-hydroxy-2-methylpropanoylamino)fluoren-9-one], the response vs control in vivo at 1 mg/kg is 112 ± 7% in the data set with bladder [1] (1 hr after administration); 136 ± 16.5% in the data set on bladder [1] (2 hr after administration); 137 ± 14.5% in the data set on bladder [1] (3 hr after administration); 132 ± 9.5% in the data set on bladder [1] (4 hr after administration); 131 ± 17.7% in the data set with bladder [1] (5 hr after administration). The IC50 with detrusor muscle [3] was determined as 2100 nM; in the data set on detrusor muscle [4], 8000 nM.
Consider `CC(O)(C(=O)Nc1cccc2c1C(=O)c1ccoc1CO2)C(F)(F)F` (stereo not shown) [Compound 9, 5-(3,3,3-Trifluoro-2-hydroxy-2-methylpropanoylamino)-4,10-dihydrofuro[2,3-c][1]benzoxepin-4-one], for which the response vs control in vivo at 1 mg/kg in the data set on bladder [1] (1 hr after administration) was 123 ± 6.8%; in the data set with bladder [1] (2 hr after administration), 131 ± 9.3%; with bladder [1] (3 hr after administration), 133 ± 9.1%; with bladder [1] (4 hr after administration) it was 145 ± 10%; with bladder [1] (5 hr after administration) it was 155 ± 12.2%. Also, the half-inhibitory concentration (IC50) with detrusor muscle [3] worked out at 4600 nM; in the data set with detrusor muscle [4], 4300 nM.
Consider `CC(O)(C(=O)Nc1cccc2c1C(=O)c1cccc(F)c1CO2)C(F)(F)F` (stereo not shown) [Compound 20, 7-Fluoro-1-(3,3,3-trifluoro-2-hydroxy-2-methylpropanoylamino)-6,11-dihydrodibenz[b,e]oxepin-11-one], for which the response vs control in vivo at 1 mg/kg turned out to be 121 ± 3.9% in the data set on bladder [1] (1 hr after administration); 147 ± 9.9% with bladder [1] (2 hr after administration); 148 ± 20% in the data set with bladder [1] (3 hr after administration); 156 ± 19.6% in the data set with bladder [1] (4 hr after administration); 142 ± 15.8% in the data set with bladder [1] (5 hr after administration). The IC50 was determined as 6000 nM in the data set with detrusor muscle [3] and 2300 nM in the data set with detrusor muscle [4].

For the origin of these results see US5726325A, “Tricyclic compounds” (Kyowa Hakko Kogyo Co., Ltd., priority 1995, dated 1998).
